Drawing on ChEMBL document CHEMBL1151757, “Synthesis, radiosynthesis, and biological evaluation of fluorine-18-labeled 2beta-carbo(fluoroalkoxy)-3beta-(3'-((Z)-2-haloethenyl)phenyl)nortropanes: candidate radioligands for in vivo imaging of the serotonin transporter with positron emission tomography” (J Med Chem, 2008), this text covers Drug uptake and Ratio for one molecule.

Common to all, as to assay type: ADME, organism-based, Macaca fascicularis
A short description of data set [1]: Drug uptake in anesthetized cynomolgus monkey brain cerebellum after 55 mins postinjection. Particulars: in vivo.
A short description of data set [2]: Drug uptake in anesthetized cynomolgus monkey brain frontal lobe after 135 mins postinjection. As to conditions: in vivo, 2.25 h.
Data set [3] in a line: Drug uptake in anesthetized cynomolgus monkey brain cerebellum after 145 mins postinjection. As to conditions: in vivo.
The nature of data set [4]: Drug uptake in anesthetized cynomolgus monkey brain occipital lobe after 12.5 mins postinjection. Particulars: in vivo.
A short description of data set [5]: Ratio of drug uptake in medulla to cerebellum in anesthetized cynomolgus monkey after 6.5 mins postinjection. As to conditions: in vivo.
Data set [6] in a line: Ratio of drug uptake in thalamus to cerebellum in anesthetized cynomolgus monkey after 205 mins postinjection. As to conditions: in vivo.
A short description of data set [7]: Drug uptake in anesthetized cynomolgus monkey brain cerebellum after 125 mins postinjection. As to conditions: in vivo.
A short description of data set [8]: Drug uptake in anesthetized cynomolgus monkey brain occipital lobe after 185 mins postinjection. As to conditions: in vivo.
Data set [9] in a line: Ratio of drug uptake in caudate to cerebellum in anesthetized cynomolgus monkey after 195 mins postinjection. As to conditions: in vivo, 3.25 h.
A short description of data set [10]: Ratio of drug uptake in caudate to cerebellum in anesthetized cynomolgus monkey after 185 mins postinjection. Particulars: in vivo.

With `O=C(OCC[18F])C1C2CCC(CC1c1cccc(/C=C\Br)c1)N2` (stereo not given), the Drug uptake in [1] is on record as 3.61; in data set [2], 2.56; in data set [3], 2.35; in data set [4], 2.68; in data set [7], 2.68; in data set [8], 2.37. In addition, the Ratio in data set [5] is recorded as 1.3; in [6] it was 1.8; in data set [9], 1.7; in [10] it was 1.8.
